Reference: article PMC11611271, “Rapid prediction of key residues for foldability by machine learning model enables the design of highly functional libraries with hyperstable constrained peptide scaffolds” (PLOS Computational Biology, 2024)

Columns and labels:
CD28 = experiment: phage spot ELISA on CD28; format: binding
From the text: (§1) To determine the performance of the libraries for ligand discovery we chose a panel of eight protein targets, which have no structural homology and a wide mass range (Fig 7C). We screened these eight targets with solution panning strategy and two additional plate panning for CD8α/β and CD28, thus ten panning campaigns in total. We consider clones showing spot phage ELISA signal > 0.3 and signal/noise ratio > 2 as positive hits. At least one binding hit was discovered for nine out of the ten panning campaigns, surpassing the success rate of the best DCP scaffolds reported previously. We also obtained the NGS data for these screening and the ranking of clones for their enrichment along the rounds of screening was analyzed and considered the top-ranking clones as potential hits. Based on their sequence diversity we selected 16 potential hits spanning five protein targets for peptide synthesis in their linear form. Seven of these are hits with positive phage ELISA signal and nine were selected based on NGS ranking without spot ELISA available. Subsequently, we conducted in vitro folding experiments on these peptides in various buffers. We observed a strong propensity for spontaneous folding regardless of the buffer condition. All HCP hits tested successfully folded into three-disulfide-containing product within two days in a universal buffer system (PBS, pH 7.4, 50% DMSO) without the need for a redox pair, as shown in Fig 8A. The binding of these folded peptides to their respective target proteins was confirmed using SPR (Table 4 and S1 Data) and binding kinetics are exemplified by the high-affinity peptide 5ji4-CRD7-2 (see Fig 8B). Among seven selected ELISA-positive hits, all of them were successfully synthesized and in vitro folded with three disulfide bonds and five were proven to be validated binders by SPR (Table 4). Nine peptides selected from the NGS ranking were synthesized and folded with the expected number of disulfide bonds and five of them bound to their target with affinities in the μM range as determined by SPR (Table 4). In general, binding affinities for these SPR-validated initial hits are weak, with Kd values in the micromolar range and fast on- and off-rates. There are two exceptions with binding affinities in the nanomolar range.
(§2) The 5ji4 libraries were constructed following the Kunkel mutagenesis method and the solution panning protocol was followed as previously described. After four to five rounds of binding selection, while eluted pool was subjected to NGS analysis, individual phage clones were also picked and analyzed with phage spot ELISA. Positive clones were subjected to SANGER sequencing.

CD28-Fc = CD28-Fc (Homo sapiens, UniProt P10747); experiment: SPR binding to CD28-Fc; parameters: purchased R&D 342-CD-200; settings: folded synthetic peptide; Biacore S200, 25°C, HBS-EP w. 5% DMSO, single-cycle kinetics; kinetic fitting (values not marked *); N.B. = no binding
Procedure: (§3) Peptide synthesis was done by CSBio (Menlo Park, CA). The linear peptides were synthesized as free N- and C- terminus. For the small-scale in vitro folding test, linear peptides were dissolved in 100% DMSO as 10 mg/ml stock, then 1/20 diluted into folding buffers. Five different buffer conditions were tested: [1] 0.1 M NH4HCO3 pH 9.0, 2 mM reduced glutathione, 0.5 mM oxidized glutathione, and 9% DMSO; [2] 0.1 M NH4HCO3 pH 8.0, 1 mM reduced glutathione, and 55% DMSO; [3] dI-water w. 5% DMSO; [4] 1X PBS pH 7.4 w. 10% DMSO; and [5] 1X PBS pH 7.4 w. 50% DMSO. Refolding was promoted by incubation at R.T. with gentle rotation and monitored by LC-MS for disulfide bond formation. […] Therefore, buffer condition was used as a universal refolding buffer for all HCP peptides. After refolding, peptides with three disulfide bonds were purified by HPLC according to standard procedure and subjected to SPR measurements.
(§4) All binding experiments were performed using a Biacore S200 instrument (GE Healthcare) at 25°C at a flow rate of 30 μl/min in HBS-EP buffer (Cytiva, #BR100188) w. 5% DMSO. The kinetics and affinity measurements were carried out using single-cycle kinetics (SCK) and referenced by subtracting the signal from the blank flow cell. […]

CD8α = experiment: phage spot ELISA on CD8α; format: binding
From the text: as §1, §2

CD8α-Fc = molecular target: T1, CD8α-Fc (Homo sapiens, UniProt P01732); experiment: SPR binding to CD8α-Fc; settings: folded synthetic peptide; Biacore S200, 25°C, HBS-EP w. 5% DMSO, single-cycle kinetics; kinetic fitting (values not marked *); N.B. = no binding
T1 construct: purchased R&D AVI10927
Procedure: as §3, §4

Fz7CRD-Fc = molecular target: T2, Fz7CRD-Fc (Homo sapiens, UniProt O75084); experiment: SPR binding to Fz7CRD-Fc; settings: folded synthetic peptide; Biacore S200, 25°C, HBS-EP w. 5% DMSO, single-cycle kinetics; kinetic fitting (values not marked *); N.B. = no binding
T2 construct: Fz7CRD-Fc (R&D, #6178-FZ-50); purchased R&D 6178-FZ-50

VEGF_(8-109) = VEGF_(8-109) (UniProt P15692); experiment: SPR; Biacore S200, target on Series S Sensor Chip SA, peptide flowed, single-cycle kinetics, three-fold dilution series from approximately 100 μM, 25°C, 30 μl/min, HBS-EP with 5% DMSO; steady-state equilibrium model
human full-length HtrA1 = human full-length HtrA1 (human, UniProt Q92743 23-480); experiment: cell-based or functional assay
RSP02-Fc = molecular target: T3, RSP02-Fc (UniProt Q6UXX9 22-243); experiment: SPR; Biacore S200, Fc-fusion target on Sensor Chip Protein A, peptide flowed, single-cycle kinetics, three-fold dilution series from approximately 100 μM, 25°C, 30 μl/min, HBS-EP with 5% DMSO; 1:1 binding (kinetic) model, or no binding seen; settings: both partners purified
T3 construct: bought as Fc fusion; captured on a Protein A sensor chip by its Fc; source: bought: Biolegend, #786206

HtrA1^PD-S/A = molecular target: T4, HtrA1^PD-S/A (human, UniProt Q92743 161-379, S328A); experiment: SPR; Biacore S200, HtrA1^PD-S/A on Series S Sensor Chip SA, peptide flowed, 25°C, 30 μl/min, HBS-EP with 5% DMSO; fit model not told for these values; settings: both partners purified
T4 construct: serine protease HtrA1, D161-K379 with S328A; source: E. coli, produced in-house (Genentech)

[1] = phage spot ELISA of the clone, positive hit: signal > 0.3 and signal/noise > 2
[2] = phage spot ELISA signal/noise ratio

T1 sequence (P01732 22-182 limits assumed): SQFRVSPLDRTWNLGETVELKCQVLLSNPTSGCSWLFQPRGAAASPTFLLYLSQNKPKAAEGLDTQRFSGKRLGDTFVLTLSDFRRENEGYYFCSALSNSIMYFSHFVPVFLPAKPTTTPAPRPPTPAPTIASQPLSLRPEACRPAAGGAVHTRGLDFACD
Chain of human full-length HtrA1 (Q92743 23-480): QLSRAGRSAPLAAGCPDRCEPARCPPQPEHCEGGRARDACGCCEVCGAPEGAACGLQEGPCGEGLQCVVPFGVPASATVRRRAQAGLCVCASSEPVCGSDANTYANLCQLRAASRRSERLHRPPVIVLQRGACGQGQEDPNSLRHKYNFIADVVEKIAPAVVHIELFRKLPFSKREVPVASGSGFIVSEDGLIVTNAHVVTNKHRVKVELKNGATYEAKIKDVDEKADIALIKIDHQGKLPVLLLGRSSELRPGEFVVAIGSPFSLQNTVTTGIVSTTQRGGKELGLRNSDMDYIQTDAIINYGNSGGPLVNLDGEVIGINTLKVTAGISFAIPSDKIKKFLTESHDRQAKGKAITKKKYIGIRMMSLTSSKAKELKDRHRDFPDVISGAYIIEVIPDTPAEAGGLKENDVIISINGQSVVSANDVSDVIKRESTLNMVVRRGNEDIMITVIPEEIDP
T4 sequence (Q92743 161-379 S328A): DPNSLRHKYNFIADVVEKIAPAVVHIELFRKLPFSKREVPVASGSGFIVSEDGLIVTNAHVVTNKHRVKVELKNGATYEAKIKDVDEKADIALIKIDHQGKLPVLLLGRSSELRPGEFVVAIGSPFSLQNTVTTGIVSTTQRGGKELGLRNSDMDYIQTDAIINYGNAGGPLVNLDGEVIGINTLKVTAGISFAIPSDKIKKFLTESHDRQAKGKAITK
T3 sequence (Q6UXX9 22-243): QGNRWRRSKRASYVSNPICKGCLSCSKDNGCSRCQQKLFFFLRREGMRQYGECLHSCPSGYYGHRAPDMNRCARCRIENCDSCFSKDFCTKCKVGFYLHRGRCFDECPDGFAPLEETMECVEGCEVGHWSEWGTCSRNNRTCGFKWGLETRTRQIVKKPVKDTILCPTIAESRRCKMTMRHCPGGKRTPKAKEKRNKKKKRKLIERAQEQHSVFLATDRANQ
Chain of CD28-Fc (P10747 19-152 limits assumed): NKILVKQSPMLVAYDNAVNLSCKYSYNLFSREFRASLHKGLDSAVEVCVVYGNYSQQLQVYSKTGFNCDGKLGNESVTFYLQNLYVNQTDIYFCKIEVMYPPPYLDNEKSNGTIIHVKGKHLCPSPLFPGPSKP

Molecule: P C E C DVNGETYTVSSSEG C ERL C SWDQGKW C RVH C G (bicyclic or more) [5ji4-CD28-7, 5JI4 library hit for CD28, synthesized and folded in vitro]
- ELISA signal (CD28; [1]): 0.25
- ELISA s/n (CD28; [2]): 3.48
- SPR Kd (CD28-Fc): N.B.

Molecule: P C D C DVNGETYTVSSSEE C EPL C LNWLSSL C RVH C G (bicyclic or more) [5ji4-CD8-16, 5JI4 library hit for CD8α, synthesized and folded in vitro]
- ELISA signal (CD8α; [1]): 3.43
- ELISA s/n (CD8α; [2]): 37.34
- SPR Kd (CD8α-Fc): N.B.

Molecule: P C E C PIRPYGVPVKSSEE C ERL C MNDWATT C RVH C G (bicyclic or more) [5ji4-CRD7-5, 5JI4 library hit for CRD7, synthesized and folded in vitro]
- SPR Kd (Fz7CRD-Fc): N.B.

Molecule: P C E C LVTPYKDDYKSSEE C ERL C RKLGVTN C RVH C G (bicyclic or more) [5ji4-CD8-8, 5JI4 library hit for CD8α, synthesized and folded in vitro]
- SPR Kd (CD8α-Fc): N.B.

B1: 5ji4-VEGF-5 (peptide)
chain: PCECFMYDILVGLASSEECKRLCWGFGQSDCRVHCG
- Kd (VEGF_(8-109)): 86 µM

B2: 5ji4-A7 (peptide)
chain: PCECTILRGWHFLTSSAECERLCRKLGVTNCRVHCG
- inhibition of HtrA1 enzyme activity (cleavage of the fluorescence-quenched substrate H2-OPT), IC50 (human full-length HtrA1): 38 µM

B3: 5ji4-RSP-1 (peptide)
chain: PCECDVNGETYTVSSSEECEPLCWMYNEHFCRVHCG
notes: hit from the 5JI4 scaffold phage libraries; free N- and C-termini; three disulfide bonds; source: synthetic peptide (CSBio), folded in vitro, HPLC purified
- Kd (RSP02-Fc): 22 ± 17 µM

B4: 5ji4-A7 (peptide)
chain: H-PCECTILRGWHFLTSSAECERLCRKLGVTNCRVHCG-OH
modifications: disulfide (positions not given here); also: three disulfide bonds, pairing not given here
- Kd (HtrA1^PD-S/A): 2.72 µM
